Where two headings read alike, the source gives them in different places.
How the values were obtained:
mast cells = settings: cited from earlier work
airway smooth muscle = settings: mechanism of action; cited from earlier work
[1] = system: leukotriene D4 (LTD4) generation; settings: mechanism of action; cited from earlier work
[2] = system: platelet activating factor-induced bronchoconstriction; settings: guinea pigs, intravenous doses of 5 and 20 mg/kg; cited from earlier work
[3] = system: IgE-mediated constriction; settings: actively sensitized guinea pigs, cited from earlier work
leukotrienes = settings: in vitro; cited from earlier work
inflammation = settings: in vivo; cited from earlier work
[4] = water solubility of amlexanox; type: physicochemical
From the text: (§1) The molecule contains a free carboxylate group, and the water solubility of amlexanox can be increased by raising the pH of the dissolution solution. However, caution is necessary using this approach as degradation of amlexanox may take place at high pH. […] Thus the formulation of a viscous, mucoadhesive solution of amlexanox which is also stable represented a major challenge.

[5] = system: acetylcholine-induced bronchoconstriction; settings: text b108; cited from earlier work
[6] = system: IgG1-mediated bronchoconstriction; settings: actively sensitized guinea pigs, cited from earlier work
[7] = system: passive cutaneous anaphylaxis mediated by IgE; settings: rat, cited from earlier work
Arthus reaction = settings: cited from earlier work
[8] = system: leukotriene D4-induced bronchoconstriction; settings: guinea pigs, intravenous doses of 5 and 20 mg/kg; cited from earlier work
tuberculin reaction = settings: intravenous, cited from earlier work
allergic reactions = settings: variety of in vivo models; cited from earlier work
[9] = stability of amlexanox in aqueous solution; type: physicochemical; settings: under certain conditions, solution pH greater than about 8.0
From the text: as §1

[10] = system: 2,4-dinitro-1 -fluorobenzene-induced contact sensitivity; settings: intravenous, cited from earlier work
[11] = system: cyclic nucleotide phosphodiesterase; settings: cited from earlier work
bronchoconstriction = settings: guinea pigs passively sensitized with rabbit IgG, intravenously; cited from earlier work
cyclo-oxygenase products = settings: whole tissue studies; cited from earlier work
[12] = system: histamine-induced bronchoconstriction; settings: cited from earlier work
[13] = system: IgE-mediated bronchoconstriction; settings: rats, cited from earlier work

Compound: CC(C)c1ccc2oc3nc(N)c(C(=O)O)cc3c(=O)c2c1 [Amlexanox, 2-amino-7-(1 methylethyl)-5-oxo-5H[1]benzopyrano[2,3-b]pyridine-3-carboxylic acid]
- release of inflammatory mediators from mast cells (mast cells; antigen-antibody induced release, ionophore induced release): Potent inhibitor of the release of inflammatory mediators from mast cells
- immunologically-stimulated release of histamine from mast cells (mast cells; mechanism of action, in vivo and in vitro studies): Inhibition
- contractile response of airway smooth muscle to LTD4 (airway smooth muscle): Antagonism
- leukotriene D4 (LTD4) generation [1]: Inhibition
- suppression of bronchoconstriction induced by platelet activating factor [2]: dose-related suppression
- inhibition of IgE-mediated constriction ([3]; 20 mg/kg, another study): significant inhibition
- ED50, inhibition of IgE-mediated constriction ([3]; one study): 14.5 mg/kg
- formation of leukotrienes (leukotrienes): Inhibits formation of leukotrienes, in vitro
- anti-inflammatory activity (inflammation): Weak anti-inflammatory activity in vivo
- water solubility [4]: poorly water soluble
- effect on acetylcholine-induced bronchoconstriction [5]: not active
- ED50, IgG1-mediated bronchoconstriction ([6]; intravenous): 8.2 mg/kg
- ED50, IgG1-mediated bronchoconstriction ([6]; oral): 160 mg/kg
- ED50, inhibition of passive cutaneous anaphylaxis ([7]; intravenous): 0.032 mg/kg
- ED50, inhibition of passive cutaneous anaphylaxis ([7]; oral): 0.73 mg/kg
- inhibition of the Arthus reaction (Arthus reaction; intravenous doses of 5 and 20 mg/kg given immediately after antigen challenge): moderate activity
- inhibition of the Arthus reaction (Arthus reaction; oral doses of 50 and 10 mg/kg given 1 or 3 hours after antigen challenge): moderate activity
- suppression of bronchoconstriction induced by leukotriene D4 [8]: dose-related suppression
- inhibition of the tuberculin reaction (tuberculin reaction; 5 mg/kg): not
- inhibition of the tuberculin reaction (tuberculin reaction; 20 mg/kg): significant inhibition
- anti-allergic activity (allergic reactions): Potent ant-allergic agent demonstrated in a variety of in vivo models
- degradation in aqueous solution [9]: degrade slowly
- inhibition of contact sensitivity ([10]; 5 mg/kg): not
- inhibition of contact sensitivity ([10]; 20 mg/kg): significant inhibition
- inhibition of cyclic nucleotide phosphodiesterase [11]: Potent inhibitor of cyclic nucleotide phosphodiesterase
- ED50, inhibition of bronchoconstriction (bronchoconstriction): 9 mg/kg
- generation of cyclo-oxygenase products (cyclo-oxygenase products): Does not inhibit generation of cyclo-oxygenase products in whole
- bronchoconstriction induced by histamine ([12]; Table 1): Has no effect on bronchoconstriction induced by histamine or
- effect on histamine-induced bronchoconstriction ([12]; text b108): slightly suppressed
- suppression of IgE-mediated bronchoconstriction ([13]; intravenous dose of 1 mg/kg): significantly suppressed
- suppression of IgE-mediated bronchoconstriction ([13]; oral dose of 10 mg/kg): significantly suppressed

Source: patent publication US20020103219A1, “Stable viscous liquid formulations of amlexanox for the prevention and treatment of mucosal diseases and disorders” (priority 2000, published 2002)
